Measurements published in ChEMBL document CHEMBL4371039, “Synthesis and biological evaluation of novel analogues of Gly-l-Pro-l-Glu (GPE) as neuroprotective agents” (Bioorg Med Chem Lett, 2019).
The source made the active and inactive calls. The rule behind the calls is not given here.

Columns and labels:
[1] = system: THP-1; test: Neuroprotective activity against Abeta (25 to 35 residues)-induced cell death in human THP1 cells assessed as cell survival at 10 uM preincubated for 2 hrs followed by Abeta (25 to 35 residues) addition and measured after 24 hrs by MTT assay (reference value: 40%); format: functional; conditions: read-out: Survival
[2] = Solubility of the compound in water; format: physicochemical; conditions: buffer
[3] = Half life in human plasma; format: ADME, cell-free
[4] = system: THP-1; test: Cytotoxicity against human THP1 cells assessed as effect on cell viability up to 400 uM measured after 6 to 48 hrs by MTT assay; format: cell-based
[5] = system: THP-1; test: Immunostimulatory activity in PMA-differentiated human THP1 cells assessed as increase in TNFalpha expression at 10 uM preincubated for 4 hrs followed by PMA addition and measured after 20 hrs by Trizol reagent based RT-PCR analysis; format: functional, cell-based
[6] = system: THP-1; test: Antiinflammatory activity in PMA-differentiated human THP1 cells assessed as reduction in MCP1 expression at 10 uM preincubated for 4 hrs followed by PMA addition and measured after 20 hrs by Trizol reagent based RT-PCR analysis; format: functional, cell-based
[7] = system: THP-1; test: Antiinflammatory activity in human THP1 cells assessed as reduction in Abeta (25 to 35 residues)-induced MCP1 expression at 10 uM preincubated for 2 hrs followed by Abeta (25 to 35 residues) addition and measured after 24 hrs by Trizol reagent based RT-PCR analysis; format: functional, cell-based
[8] = system: THP-1; test: Antiinflammatory activity in PMA-differentiated human THP1 cells assessed as reduction in TNFalpha expression at 10 uM preincubated for 4 hrs followed by PMA addition and measured after 20 hrs by Trizol reagent based RT-PCR analysis; format: functional, cell-based
[9] = system: THP-1; test: Antiinflammatory activity in human THP1 cells assessed as reduction in Abeta (25 to 35 residues)-induced TNFalpha expression at 10 uM preincubated for 2 hrs followed by Abeta (25 to 35 residues) addition and measured after 24 hrs by Trizol reagent based RT-PCR analysis; format: functional, cell-based
[10] = system: THP-1; test: Antiinflammatory activity in PMA-differentiated human THP1 cells assessed as reduction in IL-1beta expression at 10 uM preincubated for 4 hrs followed by PMA addition and measured after 20 hrs by Trizol reagent based RT-PCR analysis; format: functional, cell-based
[11] = system: THP-1; test: Antiinflammatory activity in PMA-differentiated human THP1 cells assessed as reduction in IL4-induced CCL22 expression at 10 uM preincubated for 2 hrs followed by IL4 addition and measured after 6 hrs by Trizol reagent based RT-PCR analysis; format: functional, cell-based
[12] = system: THP-1; test: Antiinflammatory activity in human THP1 cells assessed as reduction in Abeta (25 to 35 residues)-induced IL18 expression at 10 uM preincubated for 2 hrs followed by Abeta (25 to 35 residues) addition and measured after 24 hrs by Trizol reagent based RT-PCR analysis; format: functional, cell-based
[13] = system: THP-1; test: Antiinflammatory activity in PMA-differentiated human THP1 cells assessed as reduction in INFgamma/LPS-induced IL-1beta expression at 10 uM preincubated for 2 hrs followed by INFgamma/LPS addition and measured after 6 hrs by Trizol reagent based RT-PCR analysis; format: functional, cell-based
[14] = system: THP-1; test: Antiinflammatory activity in PMA-differentiated human THP1 cells assessed as reduction in IL4-induced CCL18 expression at 10 uM preincubated for 2 hrs followed by IL4 addition and measured after 6 hrs by Trizol reagent based RT-PCR analysis; format: functional, cell-based
[15] = system: THP-1; test: Antiinflammatory activity in PMA-differentiated human THP1 cells assessed as reduction in IL-18 expression at 10 uM preincubated for 4 hrs followed by PMA addition and measured after 20 hrs by Trizol reagent based RT-PCR analysis; format: functional, cell-based
[16] = system: THP-1; test: Antiinflammatory activity in human THP1 cells assessed as reduction in LPS-induced IL18 expression at 10 uM preincubated for 2 hrs followed by LPS addition and measured after 24 hrs by Trizol reagent based RT-PCR analysis; format: functional, cell-based
[17] = system: THP-1; test: Immunostimulatory activity in PMA-differentiated human THP1 cells assessed as increase in MCP1 expression at 10 uM preincubated for 4 hrs followed by PMA addition and measured after 20 hrs by Trizol reagent based RT-PCR analysis; format: functional, cell-based
[18] = system: THP-1; test: Immunostimulatory activity in PMA-differentiated human THP1 cells assessed as increase in IL-1beta expression at 10 uM preincubated for 4 hrs followed by PMA addition and measured after 20 hrs by Trizol reagent based RT-PCR analysis; format: functional, cell-based
[19] = system: THP-1; test: Antiinflammatory activity in human THP1 cells assessed as reduction in LPS-induced IL-1beta expression at 10 uM preincubated for 2 hrs followed by LPS addition and measured after 24 hrs by Trizol reagent based RT-PCR analysis; format: functional, cell-based
[20] = system: THP-1; test: Antiinflammatory activity in PMA-differentiated human THP1 cells assessed as reduction in INFgamma/LPS-induced IL-8 expression at 10 uM preincubated for 2 hrs followed by INFgamma/LPS addition and measured after 6 hrs by Trizol reagent based RT-PCR analysis; format: functional, cell-based
[21] = system: THP-1; test: Antiinflammatory activity in PMA-differentiated human THP1 cells assessed as reduction in IL4-induced IL-10 expression at 10 uM preincubated for 2 hrs followed by IL4 addition and measured after 6 hrs by Trizol reagent based RT-PCR analysis; format: functional, cell-based
[22] = system: THP-1; test: Immunostimulatory activity in PMA-differentiated human THP1 cells assessed as increase in IL-18 expression at 10 uM preincubated for 4 hrs followed by PMA addition and measured after 20 hrs by Trizol reagent based RT-PCR analysis; format: functional, cell-based
[23] = system: THP-1; test: Antiinflammatory activity in PMA-differentiated human THP1 cells assessed as reduction in LPS-induced IL-1beta expression at 10 uM preincubated for 2 hrs followed by LPS addition and measured after 24 hrs by Trizol reagent based RT-PCR analysis; format: functional, cell-based
[24] = system: THP-1; test: Antiinflammatory activity in human THP1 cells assessed as reduction in Abeta (25 to 35 residues)-induced IL-1beta expression at 10 uM preincubated for 2 hrs followed by Abeta (25 to 35 residues) addition and measured after 24 hrs by Trizol reagent based RT-PCR analysis; format: functional, cell-based
[25] = system: THP-1; test: Antiinflammatory activity in PMA-differentiated human THP1 cells assessed as reduction in LPS-induced IL18 expression at 10 uM preincubated for 2 hrs followed by LPS addition and measured after 24 hrs by Trizol reagent based RT-PCR analysis; format: functional, cell-based
[26] = system: THP-1; test: Neuroprotective activity against H2O2-induced cell death in human THP1 cells assessed as cell survival at 10 uM preincubated for 2 hrs followed by H2O2 addition and measured after 24 hrs by MTT assay (reference value: 43%); format: functional; conditions: read-out: Survival
[27] = system: THP-1; test: Immunostimulatory activity in PMA-differentiated human THP1 cells assessed as increase in LPS-induced IL-10 expression at 10 uM preincubated for 2 hrs followed by LPS addition and measured after 24 hrs by Trizol reagent based RT-PCR analysis; format: functional, cell-based
[28] = system: THP-1; test: Antiinflammatory activity in human THP1 cells assessed as reduction in LPS-induced TNFalpha expression at 10 uM preincubated for 2 hrs followed by LPS addition and measured after 24 hrs by Trizol reagent based RT-PCR analysis; format: functional, cell-based
[29] = system: THP-1; test: Immunostimulatory activity in PMA-differentiated human THP1 cells assessed as increase in LPS-induced IL-4 expression at 10 uM preincubated for 2 hrs followed by LPS addition and measured after 24 hrs by Trizol reagent based RT-PCR analysis; format: functional, cell-based

NCCN1CCC[C@H]1C(=O)N[C@@H](CCC(=O)O)C(=O)O.O=C(O)C(F)(F)F
viability at 10 µM [1]: 76% | solubility [2]: Soluble | half-life [3]: 6.6 h | Activity [4]: Non-Toxic

NCCN1CCC[C@H]1C(=O)N[C@@H](CCC(=O)O)C(=O)O
Activity [5]: Active | Activity [6]: Active | Activity [7]: Active | Activity [8]: Active | Activity [9]: Active | Activity [10]: Active | Activity [11]: inactive | Activity [12]: inactive | Activity [13]: Active | Activity [14]: inactive | Activity [15]: Active | Activity [16]: inactive | Activity [17]: Active | Activity [18]: Active | Activity [19]: Active | Activity [20]: Active | Activity [21]: inactive | Activity [22]: Active

NCC(=O)N1CCC[C@H]1C(=O)N[C@@H](CCC(=O)O)C(=O)O.O=C(O)C(F)(F)F.O=C(O)C(F)(F)F
Activity [23]: Active | Activity [6]: Active | Activity [8]: Active | Activity [24]: Active | Activity [9]: inactive | Activity [10]: Active | Activity [25]: Active | Activity [12]: inactive | viability at 10 µM [26]: 100% | Activity [15]: Active | Activity [16]: inactive | Activity [27]: Active | solubility [2]: Soluble | Activity [28]: Active | half-life [3]: 4.5 h | Activity [29]: Active | Activity [19]: Active | Activity [4]: Non-Toxic

NCCN1CCC[C@H]1C(=O)N[C@@H](CCC(=O)O)C(=O)O.O=C(O)C(F)(F)F.O=C(O)C(F)(F)F
viability at 10 µM [26]: 90% | solubility [2]: Soluble | half-life [3]: 11.8 h | Activity [4]: Non-Toxic
